Measured values reported in BindingDB's records for doi:10.1021/ml400486k (University of California, 2014).

Assay: Inhibition of Bacillus anthracis lethal toxin-induced mouse RAW264.7 cell death preincubated for 1 hr followed by lethal toxin challenge measured after 4 hrs

Compound | IC50 [µM]
Cc1cc(C)c(NC(=O)N/N=C/c2ccc(Br)cc2)c(C)c1 | 12.6
CCc1cccc(CC)c1NC(=O)N/N=C/c1ccc(Br)cc1 | > 12.5
Cc1cccc(C)c1NC(=O)N/N=C/c1ccc(Br)cc1 | 1.4
Cc1cccc(C)c1NC(=O)N/N=C/c1ccc(Br)cc1F | 0.4
Cc1cccc(C)c1NC(=O)N/N=C/c1ccc(Cl)cc1 | 1.7
Cc1cccc(C)c1NC(=O)N/N=C/c1ccccc1F | 8.2
Cc1ccc(/C=N/NC(=O)Nc2c(C)cccc2C)cc1F | 1.8
Cc1cccc(C)c1NC(=O)N/N=C/c1ccc(F)cc1 | 7
Cc1cccc(C)c1NC(=O)N/N=C/c1ccc(F)cc1F | 2.1
Cc1cccc(/C=N/NC(=O)Nc2c(C)cccc2C)c1 | 13.4
Cc1ccc(/C=N/NC(=O)Nc2c(C)cccc2C)cc1 | 2.9
CCc1ccc(/C=N/NC(=O)Nc2c(C)cccc2C)cc1 | 3
Cc1cccc(C)c1NC(=O)N/N=C/c1ccc(C(C)C)cc1 | 6.5
COc1ccc(/C=N/NC(=O)Nc2c(C)cccc2C)cc1 | > 12.5
C#Cc1ccc(/C=N/NC(=O)Nc2c(C)cccc2C)cc1 | 1.7
Cc1cccc(C)c1NC(=O)N/N=C/c1ccc(I)cc1 | 1.8
Cc1cccc(C)c1NC(=O)N/N=C/c1ccc(C(F)(F)F)cc1 | 2.6

Compound | IC50 [µM]
Cc1cccc(C)c1NC(=O)N/N=C/c1ccc(C#N)cc1 | 2.5
Cc1cccc(C)c1NC(=O)N/N=C/c1ccc(Br)o1 | > 25
Cc1cccc(C)c1NC(=O)N/N=C/c1cccs1 | > 25
Cc1cccc(C)c1NC(=O)N/N=C/c1ccc(Br)s1 | 1.7
Cc1cccc(C)c1NC(=O)N/N=C/c1c(F)cc(Br)cc1F | 4
Cc1cccc(C)c1NC(=O)N/N=C/c1ccc(Br)cc1Cl | 3.2
Cc1cccc(C)c1NC(=O)N/N=C/c1ccc(Br)c(F)c1 | 1.5
Cc1cccc(C)c1NC(=O)N/N=C/c1ccc(Br)c(Cl)c1 | 3.4
C/C(=N\NC(=O)Nc1c(C)cccc1C)c1ccc(Br)cc1 | 2.5
Cc1cccc(C)c1NC(=O)N(C)/N=C/c1ccc(Br)cc1 | 2
C#CCN(/N=C/c1ccc(Br)cc1)C(=O)Nc1c(C)cccc1C | > 12.5
Cc1cccc(C)c1NC(=S)N/N=C/c1ccc(Br)cc1 | 1.5
Cc1cccc(C)c1NC(=O)N/N=C/c1ccc(N=[N+]=[N-])cc1F | 2.2
Cc1cccc(C)c1NC(=O)N/N=C/c1ccc(N=[N+]=[N-])cc1 | 2.8
Cc1cccc(C)c1/N=C(\N)N/N=C/c1ccc(Br)cc1 | 13.8
Cc1cccc(C)c1NC(=O)N/N=C/c1c(F)c(F)c(N=[N+]=[N-])c(F)c1F | > 25
